Assay results taken from patent US20230357239A1, “PYRIDO[2,3-D]PYRIMIDIN-4-AMINES AS SOS1 INHIBITORS” (Bayer Aktiengesellschaft, priority 2020, published 2023).

Target: human SOS1 (SOS1) with human K-RasG12C (Homo sapiens (Human), UniProt Q07889)
Experiment: hK-RasG12C interaction assay with hSOS1 (HTRF)
Format: binding
Details: GST-hK-RasG12C and His-hSOS1, 60 min incubation at 20° C, mean, read-out: K-RasG12C - SOS interaction assay IC50 - [mol/l] (mean)
Protocol: Biochemical Assay: hK-RasG12C Interaction Assay with hSOS1
This assay quantifies the equilibrium interaction of human SOS1 (SOS1) with human K-Ras^G12C (K-RasG12C). Detection of the interaction is achieved by measuring homogenous time-resolved fluorescence resonance energy transfer (HTRF) from antiGST-Europium (FRET donor) bound to GST-K-RasG12C to anti-6His-XL665 bound to His-tagged hSOS1 (FRET-acceptor).
The assay buffer containes 5 mM HEPES pH 7.4 (Applichem), 150 mM NaCl (Sigma), 10 mM EDTA (Promega), 1 mM DTT (Thermofisher), 0.05% BSA Fraction V, pH 7.0, (ICN Biomedicals), 0.0025% (v/v) Igepal (Sigma) and 100 mM KF (FLUKA).
Concentrations of protein batches used are optimized to be within the linear range of the HTRF signal. A Ras working solution is prepared in assay buffer containing typically 10 nM GST-hK-RasG12C and 2 nM antiGST-Eu(K) (Cisbio, France). A SOS1 working solution is prepared in assay buffer containing typically 20 nM His-hSOS1 and 10 nM anti-6His-XL665 (Cisbio, France). An inhibitor control solution is prepared in assay buffer containing 10 nM anti-6His-XL665 without SOS1.
Fifty nl of a 100-fold concentrated solution of the test compound in DMSO are transferred into a black microtiter test plate (384 or 1536, Greiner Bio-One, Germany).
For this, either a Hummingbird liquid handler (Digilab, MA, USA) or an Echo acoustic system (Labcyte, CA, USA) is used.
All steps of the assay are performed at 20° C. A volume of 2.5 μl of the Ras working solution is added to all wells of the test plate using a Multidrop dispenser (Thermo Labsystems). After 2 min preincubation, 2.5 μl of the SOS1 working solution are added to all wells except for those wells at the side of the test plate that are subsequently filled with 2.5 μl of the inhibitor control solution. After 60 min incubation the fluorescence is measured with a Pherastar (BMG, Germany) using the HTRF module (excitation 337 nm, emission 1: 620 nm, emission 2: 665 nm).
The ratiometric data (emission 2 divided by emission 1) are normalized using the controls (DMSO=0% inhibition, inhibition control wells with inhibitor control solution=100% inhibition). […] IC50 values are calculated by 4-Parameter fitting using a commercial software package (Genedata Screener, Switzerland).

Sequence of human SOS1 (SOS1) with human K-RasG12C (Q07889 564-1049): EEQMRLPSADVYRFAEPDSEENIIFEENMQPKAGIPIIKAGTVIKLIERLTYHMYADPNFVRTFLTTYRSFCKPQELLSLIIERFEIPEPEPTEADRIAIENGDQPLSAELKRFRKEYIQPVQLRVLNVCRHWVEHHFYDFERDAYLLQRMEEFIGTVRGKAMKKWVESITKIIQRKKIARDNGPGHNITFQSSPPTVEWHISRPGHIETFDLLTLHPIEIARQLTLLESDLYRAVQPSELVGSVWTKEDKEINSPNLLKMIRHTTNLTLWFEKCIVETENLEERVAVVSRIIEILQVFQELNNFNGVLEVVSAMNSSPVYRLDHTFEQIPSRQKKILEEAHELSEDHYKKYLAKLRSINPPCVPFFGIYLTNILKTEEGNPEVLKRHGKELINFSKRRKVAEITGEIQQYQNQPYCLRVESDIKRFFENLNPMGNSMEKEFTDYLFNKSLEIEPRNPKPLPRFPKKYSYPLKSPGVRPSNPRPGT

SMILES | IC50 [nM]
CC(=O)N1CC=C(c2cnc3nc(C)nc(N[C@H](C)c4cccc(C(F)(F)F)c4C)c3c2)CC1 [Example 25, 1-{4-[2-methyl-4-({(1R)-1-[2-methyl-3-(trifluoromethyl)phenyl]ethyl}amino)pyrido[2,3-d]pyrimidin-6-yl]-3,6-dihydropyridin-1(2H)-yl}ethan-1-one] | 5.78
CC(=O)N1CC=C(c2cnc3nc(C)nc(N[C@H](C)c4cccc(C(F)(F)F)c4C)c3c2)CC1 [Example 26, 1-{4-[2-methyl-4-({(1R)-1-[2-methyl-3-(trifluoromethyl)phenyl]ethyl}amino)pyrido[2,3-d]pyrimidin-6-yl]-3,6-dihydropyridin-1(2H)-yl}ethan-1-one hydrogen] | 5.75
CC(=O)N1CC2(CC=C(c3cnc4nc(C)nc(N[C@H](C)c5cccc(C(F)(F)F)c5C)c4c3)CC2)C1 [Example 27, 1-{7-[2-methyl-4-({(1R)-1-[2-methyl-3-(trifluoromethyl)phenyl]ethyl}amino)pyrido[2,3-d]pyrimidin-6-yl]-2-azaspiro[3.5]non-6-en-2-yl}ethan-1-one] | 7.96
CC(=O)N1CC2(CCC(c3cnc4nc(C)nc(N[C@H](C)c5cccc(C(F)(F)F)c5C)c4c3)CC2)C1 [Example 28, 1-{7-[2-methyl-4-({(1R)-1-[2-methyl-3-(trifluoromethyl)phenyl]ethyl}amino)pyrido[2,3-d]pyrimidin-6-yl]-2-azaspiro[3.5]nonan-2-yl}ethan-1-one] | 9.4
CC(=O)N1CC2(C1)CN(c1cnc3nc(C)nc(N[C@H](C)c4cccc(C(F)F)c4F)c3c1)C2 [Example 29, 1-{6-[4-({(1R)-1-[3-(difluoromethyl)-2-fluorophenyl]ethyl}amino)-2-methylpyrido[2,3-d]pyrimidin-6-yl]-2,6-diazaspiro[3.3]heptan-2-yl}ethan-1-one] | 25.6
CC(=O)N1CC=C(c2cnc3nc(C)nc(N[C@H](C)c4cccc(C(F)(F)F)c4C)c3c2)C1 [Example 30, 1-{3-[2-methyl-4-({(1R)-1-[2-methyl-3-(trifluoromethyl)phenyl]ethyl}amino)pyrido[2,3-d]pyrimidin-6-yl]-2,5-dihydro-1H-pyrrol-1-yl}ethan-1-one] | 38
COc1cnc2nc(C)nc(N[C@H](C)c3cccc(C(F)(F)F)c3C)c2c1 [Example 32, 6-methoxy-2-methyl-N-{(1R)-1-[2-methyl-3-(trifluoromethyl)phenyl]ethyl}pyrido[2,3-d]pyrimidin-4-amine] | 66.4
Cc1nc(N[C@H](C)c2cccc(C(F)(F)F)c2C)c2cc(N(C)S(C)(=O)=O)cnc2n1 [Example 33, N-methyl-N-[2-methyl-4-({(1R)-1-[2-methyl-3-(trifluoromethyl)phenyl]ethyl}amino)pyrido[2,3-d]pyrimidin-6-yl]methanesulfonamide] | 27.9
Cc1nc(N[C@H](C)c2cccc(C(F)(F)F)c2C)c2cc(N3CCCS3(=O)=O)cnc2n1 [Example 34, 2-[2-methyl-4-({(1R)-1-[2-methyl-3-(trifluoromethyl)phenyl]ethyl}amino)pyrido[2,3-d]pyrimidin-6-yl]-1 lambda^6,2-thiazolidine-1,1-dione] | 13
CC(=O)N1CCN(c2cnc3nc(C)nc(N[C@H](C)c4cccc(C(F)(F)F)c4C)c3c2)CC1 [Example 35, 1-{4-[2-methyl-4-({(1R)-1-[2-methyl-3-(trifluoromethyl)phenyl]ethyl}amino)pyrido[2,3-d]pyrimidin-6-yl]piperazin-1-yl}ethan-1-one] | 7.71
CC(=O)N1CC[N+]([O-])(c2cnc3nc(C)nc(N[C@H](C)c4cccc(C(F)(F)F)c4C)c3c2)CC1 [Example 36, 1-{4-[2-methyl-4-({(1R)-1-[2-methyl-3-(trifluoromethyl)phenyl]ethyl}amino)pyrido[2,3-d]pyrimidin-6-yl]-4-oxo-4lambda^5-piperazin-1-yl}ethan-1-one] | 6.46
CC(=O)N1CC2(C1)CN(c1cc3c(N[C@H](C)c4cccc(C(F)F)c4F)nc(C)nc3nc1C)C2 [Example 37, 1-{6-[4-({(1R)-1-[3-(difluoromethyl)-2-fluorophenyl]ethyl}amino)-2,7-dimethylpyrido[2,3-d]pyrimidin-6-yl]-2,6-diazaspiro[3.3]heptan-2-yl}ethan-1-one] | 8.47
COc1cc2c(N[C@H](C)c3cccc(C(F)(F)F)c3C)nc(C)nc2nc1C [Example 38, 6-methoxy-2,7-dimethyl-N-{(1R)-1-[2-methyl-3-(trifluoromethyl)phenyl]ethyl}pyrido[2,3-d]pyrimidin-4-amine] | 46.3
Cc1nc(N[C@H](C)c2cccc(C(F)F)c2F)c2cc(N3CCCS3(=O)=O)c(C)nc2n1 [Example 39, 2-[4-({(1R)-1-[3-(difluoromethyl)-2-fluorophenyl]ethyl}amino)-2,7-dimethylpyrido[2,3-d]pyrimidin-6-yl]-1 lambda^6,2-thiazolidine-1,1-dione] | 16.2
CC(=O)N1CC(c2cnc3nc(C)nc(N[C@H](C)c4cccc(C(F)(F)F)c4C)c3c2)C1 [Example 40, 1-{3-[2-methyl-4-({(1R)-1-[2-methyl-3-(trifluoromethyl)phenyl]ethyl}amino)pyrido[2,3-d]pyrimidin-6-yl]azetidin-1-yl}ethan-1-one] | 16.1
CC(=O)N1CC=C(c2cc3c(N[C@H](C)c4cccc(C(F)(F)F)c4C)nc(C)nc3nc2C(F)(F)F)CC1 [Example 41, 1-{4-[2-methyl-4-({(1R)-1-[2-methyl-3-(trifluoromethyl)phenyl]ethyl}amino)-7-(trifluoromethyl)pyrido[2,3-d]pyrimidin-6-yl]-3,6-dihydropyridin-1(2H)-yl}ethan-1-one] | 23
CC(=O)N1CCC(c2cc3c(N[C@H](C)c4cccc(C(F)(F)F)c4C)nc(C)nc3nc2C(F)(F)F)CC1 [Example 42, 1-{4-[2-methyl-4-({(1R)-1-[2-methyl-3-(trifluoromethyl)phenyl]ethyl}amino)-7-(trifluoromethyl)pyrido[2,3-d]pyrimidin-6-yl]piperidin-1-yl}ethan-1-one] | 28.9
CC(=O)N1CC=C(c2cnc3nc(C)nc(N[C@H](C)c4cccc(C(F)F)c4F)c3c2)CC1 [Example 43, 1-{4-[4-({(1R)-1-[3-(difluoromethyl)-2-fluorophenyl]ethyl}amino)-2-methylpyrido[2,3-d]pyrimidin-6-yl]-3,6-dihydropyridin-1(2H)-yl}ethan-1-one] | 5.2
CC(=O)N1CCC(c2cnc3nc(C)nc(N[C@H](C)c4cccc(C(F)F)c4F)c3c2)CC1 [Example 44, 1-{4-[4-({(1R)-1-[3-(difluoromethyl)-2-fluorophenyl]ethyl}amino)-2-methylpyrido[2,3-d]pyrimidin-6-yl]piperidin-1-yl}ethan-1-one] | 8.43
Cc1nc(N[C@H](C)c2cccc(C(F)(F)F)c2C)c2cc(-c3cncnc3)cnc2n1 [Example 45, 2-methyl-N-{(1R)-1-[2-methyl-3-(trifluoromethyl)phenyl]ethyl}-6-(pyrimidin-5-yl)pyrido[2,3-d]pyrimidin-4-amine] | 21.1
CC(=O)N1CC=C(c2cnc3nc(C)nc(N[C@H](C)c4cccc(C(F)(F)C(C)(C)O)c4F)c3c2)CC1 [Example 46, 1-{4-[4-({(1R)-1-[3-(1,1-difluoro-2-hydroxy-2-methylpropyl)-2-fluorophenyl]ethyl}amino)-2-methylpyrido[2,3-d]pyrimidin-6-yl]-3,6-dihydropyridin-1(2H)-yl}ethan-1-one] | 2.7
CC(=O)N1CCC(c2cnc3nc(C)nc(N[C@H](C)c4cccc(C(F)(F)C(C)(C)O)c4F)c3c2)CC1 [Example 47, 1-{4-[4-({(1R)-1-[3-(1,1-difluoro-2-hydroxy-2-methylpropyl)-2-fluorophenyl]ethyl}amino)-2-methylpyrido[2,3-d]pyrimidin-6-yl]piperidin-1-yl}ethan-1-one] | 4
Cc1nc(N[C@H](C)c2cccc(C(F)(F)F)c2C)c2cc(N3CC4(CN(C(N)=O)C4)C3)cnc2n1 [Example 48, 6-[2-methyl-4-({(1R)-1-[2-methyl-3-(trifluoromethyl)phenyl]ethyl}amino)pyrido[2,3-d]pyrimidin-6-yl]-2,6-diazaspiro[3.3]heptane-2-carboxamide] | 9.95
CC(=O)N1C2CC1CN(c1cnc3nc(C)nc(N[C@H](C)c4cccc(C(F)(F)C(C)(C)O)c4F)c3c1)C2 [Example 49, 1-{3-[4-({(1R)-1-[3-(1,1-difluoro-2-hydroxy-2-methylpropyl)-2-fluorophenyl]ethyl}amino)-2-methylpyrido[2,3-d]pyrimidin-6-yl]-3,6-diazabicyclo[3.1.1]heptan-6-yl}ethan-1-one] | 3.31
